Assay results as given in patent publication US7795261B2, “Substituted 1-piperidin-4-yl-4-pyrrolidin-3-yl-piperazine derivatives and their use as neurokinin antagonists” (Janssen Pharmaceutica NV, priority 2002, dated 2010).

What was measured:
Type in all cases: cell-based
[1] = target: T1, NK2 (Homo sapiens, UniProt P21452); experiment: Signal transduction (ST), intracellular Ca++ (FLIPR), NK2; conditions: read-out: pIC50 NK2 (converted)
T1 sequence (P21452 1-398): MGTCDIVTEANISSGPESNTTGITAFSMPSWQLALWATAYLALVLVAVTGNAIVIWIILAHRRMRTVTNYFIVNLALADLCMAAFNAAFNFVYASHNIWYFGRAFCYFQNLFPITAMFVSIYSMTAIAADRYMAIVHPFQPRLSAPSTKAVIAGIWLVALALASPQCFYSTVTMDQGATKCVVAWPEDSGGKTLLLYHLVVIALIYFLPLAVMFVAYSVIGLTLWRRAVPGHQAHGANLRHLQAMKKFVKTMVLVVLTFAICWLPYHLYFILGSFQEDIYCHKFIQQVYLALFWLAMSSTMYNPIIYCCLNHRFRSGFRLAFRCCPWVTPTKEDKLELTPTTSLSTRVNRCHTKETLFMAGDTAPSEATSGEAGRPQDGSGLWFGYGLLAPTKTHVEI

[2] = target: T2, NK3 (Homo sapiens, UniProt P29371); experiment: Signal transduction (ST), intracellular Ca++ (FLIPR), NK3; conditions: read-out: pIC50 NK3 (converted)
T2 sequence (P29371 1-465): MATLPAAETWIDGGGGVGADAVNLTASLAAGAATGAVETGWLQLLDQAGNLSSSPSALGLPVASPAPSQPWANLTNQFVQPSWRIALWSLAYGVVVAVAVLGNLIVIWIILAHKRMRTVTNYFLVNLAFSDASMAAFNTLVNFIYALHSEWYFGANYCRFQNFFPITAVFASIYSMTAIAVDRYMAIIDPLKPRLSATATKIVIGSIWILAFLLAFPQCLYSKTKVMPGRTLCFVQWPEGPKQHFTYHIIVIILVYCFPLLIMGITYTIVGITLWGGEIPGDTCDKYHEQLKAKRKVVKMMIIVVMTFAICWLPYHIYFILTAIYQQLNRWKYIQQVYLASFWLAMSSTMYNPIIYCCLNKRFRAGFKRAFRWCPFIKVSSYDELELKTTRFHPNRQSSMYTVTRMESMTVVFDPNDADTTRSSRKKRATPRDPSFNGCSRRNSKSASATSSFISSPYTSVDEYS

[3] = target: NK1 (Homo sapiens, UniProt P25103); experiment: Signal transduction (ST), intracellular Ca++ (FLIPR), NK1 antagonistic activity; conditions: read-out: pIC50 NK1 (converted)
In short: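 Confluent cells loaded with 2 μM Fluo3 (1 h, 37 °C, probenecid), preincubated 20 min at RT with antagonist concentration range, then agonist added. Peak Ca++ transient read by FLIPR in Krebs buffer pH 7.4; IC50 by non-linear regression.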

NK1, sequence (P25103 whole entry): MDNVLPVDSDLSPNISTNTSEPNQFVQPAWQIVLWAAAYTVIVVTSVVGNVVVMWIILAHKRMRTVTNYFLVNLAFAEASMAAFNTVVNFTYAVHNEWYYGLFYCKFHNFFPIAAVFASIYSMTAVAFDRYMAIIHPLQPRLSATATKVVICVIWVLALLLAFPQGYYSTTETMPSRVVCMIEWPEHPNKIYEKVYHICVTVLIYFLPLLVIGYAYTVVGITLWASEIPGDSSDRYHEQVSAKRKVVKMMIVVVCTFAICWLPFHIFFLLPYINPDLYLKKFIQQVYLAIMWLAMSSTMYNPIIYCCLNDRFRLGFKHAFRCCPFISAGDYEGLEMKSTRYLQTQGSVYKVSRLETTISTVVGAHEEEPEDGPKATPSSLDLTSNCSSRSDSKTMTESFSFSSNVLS

Row | Structure (SMILES) | IC50 [1] | IC50 [2] | IC50 [3]
1 | O=C(c1cccs1)N1CC[C@@H](N2CCN([C@H]3CCN(C(=O)c4cc(C(F)(F)F)cc(C(F)(F)F)c4)[C@H](Cc4ccc(Cl)c(Cl)c4)C3)CC2)C1 [Compound 264] | 1580 nM | 200 nM | 12.6 nM
2 | O=C(c1cnccn1)N1CC[C@H](N2CCN([C@H]3CCN(C(=O)c4cc(C(F)(F)F)cc(C(F)(F)F)c4)[C@H](Cc4ccc(Cl)c(Cl)c4)C3)CC2)C1 [Compound 323] | 1260 nM | 316 nM | 10 nM
3 | COc1ccc(OC)c(S(=O)(=O)N2CCC(N3CCN([C@H]4CCN(C(=O)c5cc(C(F)(F)F)cc(C(F)(F)F)c5)[C@H](Cc5ccccc5)C4)CC3)C2)c1 (stereo partly drawn) [Compound 411] | 2510 nM | 1000 nM | 20 nM
4 | O=C(C1CC1)N1CCC(N2CCN(C3CCN(C(=O)c4cc(C(F)(F)F)cc(C(F)(F)F)c4)C(Cc4ccc(F)c(F)c4)C3)CC2)C1 (single isomer, unassigned) [Compound 252] | 1000 nM | 501 nM | 10 nM
5 | O=C(c1c(Cl)cccc1Cl)N1CCC(N2CCN(C3CCN(C(=O)c4cc(C(F)(F)F)cc(C(F)(F)F)c4)C(Cc4ccc(F)c(F)c4)C3)CC2)C1 (stereo not drawn) [Compound 256] | 1580 nM | 398 nM | 25.1 nM
6 | O=C(c1ccsc1)N1CCC(N2CCN(C3CCN(C(=O)c4cc(C(F)(F)F)cc(C(F)(F)F)c4)C(Cc4cc(F)cc(F)c4)C3)CC2)C1 (stereo not drawn) [Compound 337] | 3160 nM | 1260 nM | 39.8 nM
7 | O=C(c1sccc1CCO)N1CCC(N2CCN([C@H]3CCN(C(=O)c4cc(C(F)(F)F)cc(C(F)(F)F)c4)[C@H](Cc4ccccc4)C3)CC2)C1 (stereo partly drawn) [Compound 369] | 3980 nM | 631 nM | 12.6 nM
8 | N#CN=C(N1CCCC1)N1CCC(N2CCN([C@H]3CCN(C(=O)c4cc(C(F)(F)F)cc(C(F)(F)F)c4)[C@H](Cc4ccccc4)C3)CC2)C1 (stereo partly drawn) [Compound 302] | 2510 nM | 1000 nM | 7.94 nM
9 | O=C(C1CCCCN1C(=O)c1ccccc1Cl)N1CCC(N2CCN(C3CCN(C(=O)c4cc(C(F)(F)F)cc(C(F)(F)F)c4)C(Cc4ccccc4)C3)CC2)C1 (stereo not drawn) [Compound 295] | 2000 nM | 316 nM | 15.8 nM
10 | O=C(C1CCCCC1)N1CCC(N2CCN([C@H]3CCN(C(=O)c4cc(C(F)(F)F)cc(C(F)(F)F)c4)[C@H](Cc4ccccc4)C3)CC2)C1 (stereo partly drawn) [Compound 178] | 2000 nM | 251 nM | 10 nM
11 | O=C(c1cc(C(F)(F)F)cc(C(F)(F)F)c1)N1CC[C@H](N2CCN(C3CCN(S(=O)(=O)c4ccccc4COCc4ccccc4)C3)CC2)C[C@H]1Cc1ccccc1 (stereo partly drawn) [Compound 401] | 3160 nM | 1260 nM | 251 nM
12 | CC(C)(C)OC(=O)N1CCCCC1C(=O)N1CCC(N2CCN(C3CCN(C(=O)c4cc(C(F)(F)F)cc(C(F)(F)F)c4)C(Cc4ccccc4)C3)CC2)C1 (stereo not drawn) [Compound 206] | 794 nM | 251 nM | 10 nM
13 | O=C(c1ccco1)N1CC[C@H](N2CCN([C@H]3CCN(C(=O)c4cc(C(F)(F)F)cc(C(F)(F)F)c4)[C@H](Cc4ccc(Cl)c(Cl)c4)C3)CC2)C1 [Compound 317] | 398 nM | 631 nM | 10 nM
14 | O=C(c1cc(CCOCc2ccccc2)cs1)N1CCC(N2CCN([C@H]3CCN(C(=O)c4cc(C(F)(F)F)cc(C(F)(F)F)c4)[C@H](Cc4ccccc4)C3)CC2)C1 (stereo partly drawn) [Compound 362] | 2510 nM | 2510 nM | 126 nM
15 | CC(C)(C)OC(=O)N1CCC[C@H]1C(=O)N1CCC(N2CCN([C@H]3CCN(C(=O)c4cc(C(F)(F)F)cc(C(F)(F)F)c4)[C@H](Cc4ccccc4)C3)CC2)C1 (stereo partly drawn) [Compound 115] | 7940 nM | 316 nM | 20 nM
16 | O=C(c1ccco1)N1CC[C@@H](N2CCN([C@H]3CCN(C(=O)c4cc(C(F)(F)F)cc(C(F)(F)F)c4)[C@H](Cc4ccc(Cl)c(Cl)c4)C3)CC2)C1 [Compound 267] | 631 nM | 200 nM | 7.94 nM
17 | N#CN=C(N1CCOCC1)N1CCC(N2CCN([C@H]3CCN(C(=O)c4cc(C(F)(F)F)cc(C(F)(F)F)c4)[C@H](Cc4ccccc4)C3)CC2)C1 (stereo partly drawn) [Compound 371] | 7940 nM | 5010 nM | 15.8 nM
18 | COc1ccc(Cl)cc1S(=O)(=O)N1CCC(N2CCN([C@H]3CCN(C(=O)c4cc(C(F)(F)F)cc(C(F)(F)F)c4)[C@H](Cc4ccccc4)C3)CC2)C1 (stereo partly drawn) [Compound 412] | 2510 nM | 5010 nM | 79.4 nM

Continued, values first:

Row | IC50 [1] | IC50 [2] | IC50 [3] | Structure (SMILES)
19 | 5010 nM | 5010 nM | 20 nM | O=C(c1cn[nH]c1)N1CCC(N2CCN([C@H]3CCN(C(=O)c4cc(C(F)(F)F)cc(C(F)(F)F)c4)[C@H](Cc4ccccc4)C3)CC2)C1 (stereo partly drawn) [Compound 25]
20 | 7940 nM | 1580 nM | 6.31 nM | Cc1nnsc1C(=O)N1CCC(N2CCN(C3CCN(C(=O)c4cc(C(F)(F)F)cc(C(F)(F)F)c4)C(Cc4ccccc4)C3)CC2)C1 (single isomer, unassigned) [Compound 380]
21 | 3160 nM | 5010 nM | 10 nM | O=C(c1cc(C(F)(F)F)cc(C(F)(F)F)c1)N1CC[C@H](N2CCN(C3CCN(C(=O)C4(O)CC4)C3)CC2)C[C@H]1Cc1ccccc1 (stereo partly drawn) [Compound 276]
22 | 5010 nM | 3980 nM | 12.6 nM | O=C(Nc1ccccc1F)N1CCC(N2CCN([C@H]3CCN(C(=O)c4cc(C(F)(F)F)cc(C(F)(F)F)c4)[C@H](Cc4ccccc4)C3)CC2)C1 (stereo partly drawn) [Compound 284]
23 | 5010 nM | 2000 nM | 6.31 nM | N#Cc1ccc(C(=O)N2CCC(N3CCN([C@H]4CCN(C(=O)c5cc(C(F)(F)F)cc(C(F)(F)F)c5)[C@H](Cc5ccccc5)C4)CC3)C2)cc1 (stereo partly drawn) [Compound 271]
24 | 5010 nM | 7940 nM | 31.6 nM | O=C(C(O)c1ccccc1Cl)N1CCC(N2CCN([C@H]3CCN(C(=O)c4cc(C(F)(F)F)cc(C(F)(F)F)c4)[C@H](Cc4ccccc4)C3)CC2)C1 (stereo partly drawn) [Compound 334]
25 | 2510 nM | 6310 nM | 31.6 nM | O=C(c1cc(C(F)(F)F)cc(C(F)(F)F)c1)N1CCC(N2CCN(C3CCN(C(CO)c4ccsc4)C3)CC2)CC1Cc1ccccc1 (stereo not drawn) [Compound 349]
26 | 3980 nM | 1000 nM | 25.1 nM | O=C(Cc1cccs1)N1CCC(N2CCN([C@H]3CCN(C(=O)c4cc(C(F)(F)F)cc(C(F)(F)F)c4)[C@H](Cc4ccccc4)C3)CC2)C1 (stereo partly drawn) [Compound 67]
27 | 3980 nM | 2510 nM | 251 nM | O=C(c1cc(C(F)(F)F)cc(C(F)(F)F)c1)N1CCC(N2CCN(C3CCN(Cc4ccccc4)C3)CC2)CC1Cc1cc(Cl)cc(Cl)c1 (stereo not drawn) [Compound 320]
28 | 6310 nM | 631 nM | 20 nM | O=C(c1ccccc1Cl)N1CCC(N2CCN(C3CCN(C(=O)c4cc(C(F)(F)F)cc(C(F)(F)F)c4)C(Cc4ccccc4)C3)CC2)C1 (single isomer, unassigned) [Compound 159]
29 | 631 nM | 501 nM | 12.6 nM | CC(C(=O)N1CCC(N2CCN([C@H]3CCN(C(=O)c4cc(C(F)(F)F)cc(C(F)(F)F)c4)[C@H](Cc4ccccc4)C3)CC2)C1)c1ccccc1 (stereo partly drawn) [Compound 69]
30 | 6310 nM | 631 nM | 31.6 nM | O=C(c1cc(C(F)(F)F)cc(C(F)(F)F)c1)N1CCC(N2CCN(C3CCN(c4ncccn4)C3)CC2)CC1Cc1ccccc1 (stereo not drawn) [Compound 5]
31 | 3160 nM | 7940 nM | 31.6 nM | COc1cccc(NC(=O)N2CCC(N3CCN(C4CCN(C(=O)c5cc(C(F)(F)F)cc(C(F)(F)F)c5)C(Cc5ccccc5)C4)CC3)C2)c1 (stereo not drawn) [Compound 343]
32 | 2000 nM | 3160 nM | 10 nM | O=C(c1ccc(O)cc1)N1CCC(N2CCN([C@H]3CCN(C(=O)c4cc(C(F)(F)F)cc(C(F)(F)F)c4)[C@H](Cc4ccccc4)C3)CC2)C1 (stereo partly drawn) [Compound 341]
33 | 3980 nM | 1260 nM | 31.6 nM | Cc1cc(C(=O)N2CCC(N3CCN([C@H]4CCN(C(=O)c5cc(C(F)(F)F)cc(C(F)(F)F)c5)[C@H](Cc5ccccc5)C4)CC3)C2)no1 (stereo partly drawn) [Compound 46]
34 | 1580 nM | 3160 nM | 5.01 nM | O=C(c1cccc(O)c1)N1CCC(N2CCN([C@H]3CCN(C(=O)c4cc(C(F)(F)F)cc(C(F)(F)F)c4)[C@H](Cc4ccccc4)C3)CC2)C1 (stereo partly drawn) [Compound 332]
